# Reference: paper PMC9843824 (Neuropharmacology, 2022)
# Where “and” joins values, the source holds several entries; their conditions need not be identical. Identical values can stand only once. Like-named read-outs stand apart in the source and are kept apart here.
# Tests used:
# [1] = type: in vivo; settings: rat; for Oral availability / bioavailability: gavage vs i.p.
# [2] = system: Ca2+-activated K+ channels; settings: ref Sankaranarayanan et al., 2009; cited from earlier work
# physchem = type: physicochemical
# KA rat model of TLE = settings: for Neuroprotection, FJB staining in hippocampus at 3 d: 10 mg/kg i.p. 1 h and 4 h after SE
# in vitro = in vitro ADME; settings: rat, plasma
# [3] = system: neural activity regulated, high affinity MeAIB/Gln transport in mature rat hippocampal neurons; type: cell-based; settings: for Block of activity regulated MeAIB transport, screen 2 / Result of screen 2 (block of MeAIB transport): compound 10 μM, 14C-MeAIB 5.4 μM; for IC50: read-out: IC50, inhibition of Ca2+-regulated (spontaneous, activity regulated) MeAIB transport, hippocampal neurons DIV 19–21, 2 min preincubation, 37 °C; for Mode of inhibition of Ca2+-regulated MeAIB transport: Michaelis-Menten kinetic analysis; for Reduction of initial velocity (V, Vmax) of MeAIB transport / Vmax of Ca2+-regulated MeAIB transport in presence of inhibitor: inhibitor 1 μM; for Vmax of Ca2+-regulated MeAIB transport in presence of inhibitor: control 107 ± 9
# [4] = system: Ca2+-independent (low affinity) MeAIB transport in mature rat hippocampal neurons; type: cell-based; settings: at 15 min of uptake
# NaV1.2 = NaV1.2 (Mus musculus, UniProt B1AWN6); type: cell-based
# Sequence of NaV1.2 (B1AWN6 whole entry): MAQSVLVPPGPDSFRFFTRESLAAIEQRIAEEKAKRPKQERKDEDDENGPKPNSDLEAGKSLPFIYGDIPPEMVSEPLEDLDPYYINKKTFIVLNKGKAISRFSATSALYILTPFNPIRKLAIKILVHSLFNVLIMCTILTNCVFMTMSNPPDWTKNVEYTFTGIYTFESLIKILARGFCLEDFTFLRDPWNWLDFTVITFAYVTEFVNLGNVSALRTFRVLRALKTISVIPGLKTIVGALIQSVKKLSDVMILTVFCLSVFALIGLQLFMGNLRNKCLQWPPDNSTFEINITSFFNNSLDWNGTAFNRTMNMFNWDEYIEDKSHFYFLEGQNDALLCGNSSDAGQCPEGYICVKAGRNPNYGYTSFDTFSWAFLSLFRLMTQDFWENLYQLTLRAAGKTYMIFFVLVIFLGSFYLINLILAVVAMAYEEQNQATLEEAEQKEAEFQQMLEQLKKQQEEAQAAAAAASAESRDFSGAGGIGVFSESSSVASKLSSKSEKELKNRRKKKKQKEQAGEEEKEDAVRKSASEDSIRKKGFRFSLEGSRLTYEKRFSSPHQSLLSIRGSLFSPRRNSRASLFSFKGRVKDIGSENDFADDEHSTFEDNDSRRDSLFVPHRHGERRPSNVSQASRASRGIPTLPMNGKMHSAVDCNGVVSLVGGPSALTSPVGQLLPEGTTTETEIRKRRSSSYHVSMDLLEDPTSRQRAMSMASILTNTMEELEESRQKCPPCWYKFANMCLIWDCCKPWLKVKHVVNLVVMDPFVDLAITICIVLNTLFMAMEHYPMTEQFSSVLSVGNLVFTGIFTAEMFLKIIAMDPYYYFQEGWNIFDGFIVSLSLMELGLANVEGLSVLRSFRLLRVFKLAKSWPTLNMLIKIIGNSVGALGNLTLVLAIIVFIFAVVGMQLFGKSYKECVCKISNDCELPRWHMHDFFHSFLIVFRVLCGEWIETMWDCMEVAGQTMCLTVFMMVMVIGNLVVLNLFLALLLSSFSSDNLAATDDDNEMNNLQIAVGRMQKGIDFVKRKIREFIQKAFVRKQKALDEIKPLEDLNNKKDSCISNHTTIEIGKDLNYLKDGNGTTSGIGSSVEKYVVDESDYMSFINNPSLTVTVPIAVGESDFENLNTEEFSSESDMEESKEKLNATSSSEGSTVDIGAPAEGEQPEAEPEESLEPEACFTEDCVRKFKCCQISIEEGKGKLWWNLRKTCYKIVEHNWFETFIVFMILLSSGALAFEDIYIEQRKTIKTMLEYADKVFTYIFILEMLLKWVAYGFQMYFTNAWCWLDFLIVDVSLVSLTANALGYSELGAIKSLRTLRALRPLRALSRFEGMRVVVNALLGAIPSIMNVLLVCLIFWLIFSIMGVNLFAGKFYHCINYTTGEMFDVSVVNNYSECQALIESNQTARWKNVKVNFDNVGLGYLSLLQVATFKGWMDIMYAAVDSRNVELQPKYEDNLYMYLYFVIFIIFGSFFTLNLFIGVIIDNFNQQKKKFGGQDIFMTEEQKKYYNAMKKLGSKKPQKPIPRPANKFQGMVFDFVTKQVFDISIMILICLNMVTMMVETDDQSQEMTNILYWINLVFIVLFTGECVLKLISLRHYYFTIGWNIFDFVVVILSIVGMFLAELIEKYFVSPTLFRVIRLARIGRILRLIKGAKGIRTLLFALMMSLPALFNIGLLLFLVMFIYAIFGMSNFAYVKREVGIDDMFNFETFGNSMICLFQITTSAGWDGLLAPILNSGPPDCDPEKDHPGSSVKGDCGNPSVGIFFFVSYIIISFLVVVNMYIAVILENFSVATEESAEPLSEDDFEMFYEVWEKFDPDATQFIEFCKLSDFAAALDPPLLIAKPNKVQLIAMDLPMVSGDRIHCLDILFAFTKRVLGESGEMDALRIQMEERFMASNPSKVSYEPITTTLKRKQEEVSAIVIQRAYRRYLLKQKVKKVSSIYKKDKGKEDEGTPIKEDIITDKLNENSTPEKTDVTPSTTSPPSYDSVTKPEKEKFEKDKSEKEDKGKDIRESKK
# NaV1.6 = NaV1.6 (Homo sapiens, UniProt Q9UQD0); assay: Whole-cell patch-clamp, HEK cells transiently transfected with NaV1.6; type: cell-based; settings: IC50 NaV1.6, holding potential −80 mV, inter-pulse interval 10 s (0.1 Hz)
# Sequence of NaV1.6 (Q9UQD0 whole entry): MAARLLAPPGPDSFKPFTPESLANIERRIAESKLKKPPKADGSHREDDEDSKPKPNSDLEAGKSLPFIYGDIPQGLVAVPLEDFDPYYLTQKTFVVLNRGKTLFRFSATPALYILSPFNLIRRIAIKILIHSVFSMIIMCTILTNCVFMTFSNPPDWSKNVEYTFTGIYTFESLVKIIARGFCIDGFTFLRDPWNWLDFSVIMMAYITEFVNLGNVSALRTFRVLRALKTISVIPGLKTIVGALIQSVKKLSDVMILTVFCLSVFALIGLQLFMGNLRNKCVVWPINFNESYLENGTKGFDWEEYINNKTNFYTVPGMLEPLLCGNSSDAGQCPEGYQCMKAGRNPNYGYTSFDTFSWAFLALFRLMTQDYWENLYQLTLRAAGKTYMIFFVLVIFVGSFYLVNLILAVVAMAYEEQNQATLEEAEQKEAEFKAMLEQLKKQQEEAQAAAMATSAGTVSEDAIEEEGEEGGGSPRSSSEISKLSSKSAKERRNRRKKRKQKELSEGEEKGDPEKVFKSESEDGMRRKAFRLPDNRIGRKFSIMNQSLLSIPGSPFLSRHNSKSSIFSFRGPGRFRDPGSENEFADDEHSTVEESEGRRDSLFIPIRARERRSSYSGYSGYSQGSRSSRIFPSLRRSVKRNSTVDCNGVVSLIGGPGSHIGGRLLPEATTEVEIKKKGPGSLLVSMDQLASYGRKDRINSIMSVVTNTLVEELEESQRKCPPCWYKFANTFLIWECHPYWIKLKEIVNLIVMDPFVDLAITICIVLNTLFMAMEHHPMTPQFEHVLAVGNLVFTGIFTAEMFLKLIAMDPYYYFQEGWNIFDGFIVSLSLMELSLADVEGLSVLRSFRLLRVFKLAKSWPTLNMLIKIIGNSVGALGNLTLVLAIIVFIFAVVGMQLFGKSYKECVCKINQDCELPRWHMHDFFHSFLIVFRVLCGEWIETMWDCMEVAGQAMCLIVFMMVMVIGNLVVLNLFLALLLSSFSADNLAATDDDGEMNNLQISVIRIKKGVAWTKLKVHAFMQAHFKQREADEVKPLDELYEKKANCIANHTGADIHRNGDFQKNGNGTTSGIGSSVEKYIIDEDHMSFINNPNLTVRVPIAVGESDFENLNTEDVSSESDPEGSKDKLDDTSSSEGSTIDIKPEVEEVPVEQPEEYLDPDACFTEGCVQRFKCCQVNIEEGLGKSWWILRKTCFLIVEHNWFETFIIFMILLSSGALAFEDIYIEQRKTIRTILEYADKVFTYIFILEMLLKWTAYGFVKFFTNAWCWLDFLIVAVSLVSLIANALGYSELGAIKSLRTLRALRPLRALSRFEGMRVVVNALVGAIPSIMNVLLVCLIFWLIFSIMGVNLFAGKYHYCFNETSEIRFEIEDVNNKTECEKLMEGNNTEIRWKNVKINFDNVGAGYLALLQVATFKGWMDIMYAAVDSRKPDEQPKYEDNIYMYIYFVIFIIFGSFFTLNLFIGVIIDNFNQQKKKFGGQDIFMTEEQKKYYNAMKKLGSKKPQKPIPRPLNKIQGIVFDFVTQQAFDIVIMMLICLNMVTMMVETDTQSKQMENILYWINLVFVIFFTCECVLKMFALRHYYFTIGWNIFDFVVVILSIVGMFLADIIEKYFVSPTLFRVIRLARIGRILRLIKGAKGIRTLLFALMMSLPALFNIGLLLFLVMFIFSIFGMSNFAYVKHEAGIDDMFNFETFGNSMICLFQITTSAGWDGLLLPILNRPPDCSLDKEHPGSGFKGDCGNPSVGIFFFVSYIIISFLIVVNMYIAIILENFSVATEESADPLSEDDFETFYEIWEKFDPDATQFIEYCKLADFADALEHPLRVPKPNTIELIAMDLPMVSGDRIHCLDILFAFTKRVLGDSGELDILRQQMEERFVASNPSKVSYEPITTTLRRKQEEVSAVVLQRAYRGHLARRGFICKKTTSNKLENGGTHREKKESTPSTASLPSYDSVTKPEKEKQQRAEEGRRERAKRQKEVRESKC
# [5] = 30 mg/kg i.p. 1 h and 4 h after SE, then once/day for 2 d
smiles,measurement,setting,value
"Nc1nc(-c2ccc(OC(F)(F)F)cc2)cs1 [SKA-41, 4-(4-(Trifluoromethoxy)phenyl)thiazol-2-amine]",Brain penetration,[1],excellent
same,Oral availability / bioavailability,[1],excellent
same,Activity on Ca2+-activated K+ channels,[2],inactive
same,logP,physchem,4.58
same,"Neuroprotection, FJB staining in hippocampus at 3 d",KA rat model of TLE; then once/day for 2 d,"neuro-protective, but not as protective as riluzole"
same,fraction unbound,in vitro,0.043
"Nc1nc(-c2cccc3ccccc23)cs1 [SKA-75, 4-(Naphthalen-1-yl)thiazol-2-amine]",logP,physchem,4.05
same,"Block of activity regulated MeAIB transport, screen 2",[3],~ 50%
same,IC50,[3]; 15 min uptake,4.5 ± 0.45 µM
"Nc1nc(-c2ccc3ccccc3c2)c(Br)s1 [SKA-220, 5-Bromo-4-(naphthalen-2-yl)thiazol-2-amine]",logP,physchem,4.42
same,Result of screen 2 (block of MeAIB transport),[3],active
"Cc1ccc(-c2csc(N)n2)c2ccccc12 [SKA-190, 4-(4-Methylnaphthalen-1-yl)thiazol-2-amine]",logP,physchem,4.53
same,Result of screen 2 (block of MeAIB transport),[3],active
"Cc1ccc(-c2nc(N)sc2Br)c2ccccc12 [SKA-375, 5-Bromo-4-(4-methylnaphthalen-1-yl)thiazol-2-amine]",logP,physchem,5.25
"Nc1nc(-c2ccc(OC(F)(F)F)cc2)c(Cl)s1 [SKA-376, 5-Chloro-4-(4-(trifluoromethoxy)phenyl)thiazol-2-amine]",logP,physchem,4.53
same,Hippocampal neural injury by FJB staining and NeuN fluorescence at 3 d,KA rat model of TLE; [5],did not significantly reduce neural injury
same,IC50,[3]; 15 min uptake,4.3 ± 0.4 µM
same,fraction unbound,in vitro,0.015
"Nc1nc(-c2ccc3ccccc3c2)c(Cl)s1 [SKA-379, 5-Chloro-4-(naphthalen-2-yl)thiazol-2-amine]",logP,physchem,4.42
same,"Neuroprotection, FJB staining in hippocampus at 3 d",KA rat model of TLE; then once/day for 2 d,"neuro-protective, but not as protective as riluzole"
same,Hippocampal neural injury by FJB staining and NeuN fluorescence at 3 d,KA rat model of TLE; [5],neuroprotective
same,IC50,[3]; 15 min uptake,6.5 ± 0.25 µM
"Nc1nc(-c2cccc3ccccc23)c(Br)s1 [SKA-219, 5-Bromo-4-(naphthalen-1-yl)thiazol-2-amine]",logP,physchem,4.76
same,"Block of activity regulated MeAIB transport, screen 2",[3],> 95%
same,fraction unbound,in vitro,0.005
"Nc1nc(-c2ccc3ccccc3c2)c(F)s1 [SKA-382, 5-Fluoro-4-(naphthalen-2-yl)thiazol-2-amine]",logP,physchem,4.14
"CNC(C)(C)C(=O)O [MeAIB, methylaminoisobutryic acid, reference compound]",Vmax of Ca2+-dependent MeAIB transport,[3]; at 15 min of uptake,1605 ± 139 pmol/well
same,Km,"[3]; read-out: Km for spontaneous Ca2+-dependent MeAIB transport, Michaelis-Menten analysis, 15 min uptake",61 ± 5 µM
same,Vmax of Ca2+-independent MeAIB transport,[4],1793 ± 131 pmol/well
"Nc1nc2ccc(OC(F)(F)F)cc2s1 [Riluzole, reference compound]",Frequency dependence of NaV1.2 block,NaV1.2,not frequency dependent
same,"Neuroprotection, FJB staining in hippocampus at 3 d",KA rat model of TLE; then once/day for 2 d,prevents acute neural injury altogether
same,Behaviour of rats after treatment,KA rat model of TLE; 10 mg/kg post-SE,relatively immobile/sedated
same,Duration of KA-induced SE events,"KA rat model of TLE; 10 mg/kg post-SE, untreated 4–6 h",less than 2 h
same,Behaviour of rats at higher doses,"KA rat model of TLE; e.g., 30 mg/kg",render rats immobile and unresponsive
same,Neural injury in hippocampal limbic areas,KA rat model of TLE; post-treated,largely prevented neural injury
same,Mode of inhibition of Ca2+-regulated MeAIB transport,[3],noncompetitive
same,"Reduction of initial velocity (V, Vmax) of MeAIB transport",[3],~ 50%
same,Vmax of Ca2+-regulated MeAIB transport in presence of inhibitor,[3],54 ± 1 pmol/min
same,IC50,[3]; 15 min uptake,0.86 ± 0.02 µM
same,Spontaneous MeAIB transport after 15 min in presence of inhibitor,"[3]; riluzole 10 μM, 23.4 μM 14C-MeAIB, total without inhibitor 619±21",133 ± 8 pmol/well
same,IC50,NaV1.6,115 ± 2 µM
"Cc1ccc(-c2nc(N)sc2Cl)c2ccccc12 [SKA-377, 5-Chloro-4-(4-methylnaphthalen-1-yl)thiazol-2-amine]",Oral availability / bioavailability,[1],excellent oral availability
same,logP,physchem,4.91
same,"Neuroprotection, FJB staining in hippocampus at 3 d",KA rat model of TLE; then once/day for 2 d,"neuro-protective, but not as protective as riluzole"
same,Hippocampal neural injury by FJB staining and NeuN fluorescence at 3 d,KA rat model of TLE; [5],neuroprotective
same,fraction unbound,in vitro,0.01
"Nc1nc(-c2cccc3ccccc23)c(Cl)s1 [SKA-378, 5-Chloro-4-(naphthalen-1-yl)thiazol-2-amine]",Brain penetration,[1],excellent
same,logP,physchem,4.2
same,"Neuroprotection, FJB staining in hippocampus at 3 d",KA rat model of TLE; then once/day for 2 d,"neuro-protective, but not as protective as riluzole"
same,FJB staining in hippocampal CA1-4 neurons at 3 d,KA rat model of TLE; [5],minimal
same,NeuN fluorescence in pyramidal neuron subfields at 3 d,KA rat model of TLE; [5],largely prevents the diminished NeuN fluorescence
same,Rats still exhibiting maximal stage 5 seizures (Racine scale),KA rat model of TLE; 30 mg/kg i.p. given before KA (pretreatment),> 50%
same,"FJB staining, hippocampal CA pyramidal neuron layers at 3 d",KA rat model of TLE; 30 mg/kg i.p. pretreatment,blocks neuronal hippocampal injury
same,"NeuN fluorescent intensity in CA4, CA3, CA1 at 3 d",KA rat model of TLE; 30 mg/kg i.p. pretreatment,nearly identical to sham levels
same,Seizure severity vs non-treated KA-injected rats,KA rat model of TLE; 30 mg/kg i.p. pretreatment,did not show a significant reduction in seizure severity
same,Duration of KA-induced SE events,KA rat model of TLE; 30 mg/kg post-SE,not affected
same,Mode of inhibition of Ca2+-regulated MeAIB transport,[3],noncompetitive
same,"Reduction of initial velocity (V, Vmax) of MeAIB transport",[3],~ 50%
same,Vmax of Ca2+-regulated MeAIB transport in presence of inhibitor,[3],73 ± 6 pmol/min
same,IC50,[3]; 15 min uptake,1.1 ± 0.17 µM
same,IC50,NaV1.6,28 µM and ~28 µM
same,fraction unbound,in vitro,0.008
"Nc1nc(-c2ccc3ccccc3c2)cs1 [SKA-76, 4-(Naphthalen-2-yl)thiazol-2-amine]",logP,physchem,4.05
same,"Block of activity regulated MeAIB transport, screen 2",[3],~ 50%
same,IC50,[3]; 15 min uptake,6.2 ± 0.9 µM
"COc1ccc(CCN(C)CCCC(C#N)(c2ccc(OC)c(OC)c2)C(C)C)cc1OC (stereo not drawn) [verapamil, reference compound]",Spontaneous MeAIB transport after 15 min in presence of inhibitor,[3],119 ± 9 pmol/well
